The results in this text go back to patent US11007355B2 (TARIS Biomedical LLC, priority 2012, dated 2021).

Molecules are shown by their SMILES. Values joined by “and” are separate entries in the source; they are usually repeats but may differ in a detail not shown here. Identical values can stand only once. “Also recorded” adds a separate entry of the source. Like-named read-outs stand apart in the source and are kept apart here.

The subject of data set [1] is male Sprague Dawley rats. The data set is described as follows: Bladder tolerability in rats: clinical observations during perfusion and tissue observations at necropsy (Example 1). Type of data set: in vivo, rat. The procedure:
For each drug, each test group included three male rats. The perfusate drug concentration was set to 0.3 mg/mL and the perfusion rate used was 300 μL/hour over the test periods.
Perfusion solutions were prepared by dissolving each drug substance into an appropriate volume of saline. The finals doses administered are summarized below.

The nature of data set [2]: Platinum content of blood, urine and terminal tissues by ICP-MS after bladder perfusion or IV bolus (Example 1). Type of data set: in vivo, rat.
In data set [3] the test system is male Sprague Dawley rats. The following applies: 72-hour bladder perfusion. As for the experimental part:
(§1) Blood, urine, and tissue samples were collected and analyzed for drug content.
(§2) The perfusate formulation concentration was 0.308 mg/mL. Dose (mg/kg) was calculated as (Dose administered (g) x formulation concentration (mg/mL))/Animal Wt. (kg). The drug solutions were dosed over a 72-hour period into the non-fasted animal's bladder by intra-urinary bladder cannula using an infusion pump.
(§3) Whole blood samples were taken via tailnick or jugular vein cannula at the following time points following the start of perfusion: 0, 4, 8, 24, and 48 hours. Urine was collected pre-dose and for 0-24, 24-48, and 48-72-hour periods post dose.
(§4) Following the 72-hour infusion period the animals were sacrificed, terminal blood samples were taken via the abdominal aorta, and bladder, prostate, ureter, and kidney tissues were collected, weighed, and visually inspected for evidence of tolerability/reaction from exposure to the drug.

Data set [4] can be described thus: Oxaliplatin tissue permeability: platinum in blood, urine and tissues after 72-hour bladder perfusion (Example 2). The procedure: as §1, §2, §3, §4
[5] abbreviates: Group 1: 24-hr bladder perfusion, 0.3 mg/mL.
[6] abbreviates: Group 2: 72-hr bladder perfusion, 0.3 mg/mL.
[7] abbreviates: Group 4: IV bolus with saline perfusion via cannula.
[8] abbreviates: 0.308 mg/mL, individual animals 47, 48, 49.

Consider `N.N.O=C([O-])C1(C(=O)[O-])CCC1.[Pt+2]` [carboplatin], for which the “Tissue Observations at Necropsy: bladder lumen erythemic discoloration (grade)” value with male Sprague Dawley rats [1] (setting [5]) was “Bladder lumen: slight to mild”; in the data set with male Sprague Dawley rats [1] (setting [6]), “Bladder lumen: slight to mild”; in the data set on male Sprague Dawley rats [1] (setting [7]), “Bladder lumen: slight generalized”. The “Tissue Observations at Necropsy: erythemic discoloration, share of lumen” value in the data set with male Sprague Dawley rats [1] (setting [5]) is recorded as 10-30 % of lumen; with male Sprague Dawley rats [1] (setting [6]), 10-30 % of lumen; in the data set with male Sprague Dawley rats [1] (setting [7]), “erythemic discoloration, 5-10% of lumen”. The “Tissue Observations at Necropsy: evidence of tissue edema/thickened bladder walls” value in the data set with male Sprague Dawley rats [1] (setting [5]) and with male Sprague Dawley rats [1] (setting [6]) was “no” each time. Further, the “Clinical Observations of note during Perfusion” value in the data set with male Sprague Dawley rats [1] (Group 1: 24-hr perfusion via cannula to bladder dome, 0.3 mg/mL, 300 μL/hour, 3 male rats) is given as “Normal”; in the data set on male Sprague Dawley rats [1] (Group 2: 72-hr perfusion via cannula to bladder dome, 0.3 mg/mL, 300 μL/hour, 3 male rats), “Normal”; in the data set on male Sprague Dawley rats [1] (Group 4: IV bolus with saline perfusion via cannula, 3 male rats) it was “Red tinted urine”. For the same compound, the “Appearance of animals during perfusion period” value with male Sprague Dawley rats [1] (all dosed animals (Groups 1, 2, 4)) is “all animals appeared normal”. Further, the “Bladder tolerability and tissue permeability criteria (overall)” value in the data set with male Sprague Dawley rats [1] (bladder perfusion, Example 1) is on record as “meet only one or other of these criteria”. Besides, the “Blood profile (platinum)” value in data set [2] (IV bolus, FIG. 8) is on record as “significant peak systemic platinum exposure followed by a sharp decay”. In addition, the “Amount in the IV bolus terminal phase as compared with cisplatin” value in data set [2] (IV bolus, blood) was “one quarter less”. In addition, in data set [2] (bladder perfusion 0.3 mg/mL), the “Therapeutic tissue platinum concentrations by intravesical perfusion” value was “does not achieve therapeutic tissue platinum concentrations”. In data set [2] (bladder perfusion groups, FIG. 8), the “Observed plasma levels (blood profile, platinum)” value is “near the limit of the assay detection (twice the limits of detection) to below the quantitation limit”. In data set [2] (bladder perfusion, FIG. 9), the “Tissue levels (terminal platinum concentrations) compared with cisplatin” value is listed as “consistently less than those observed following cisplatin bladder perfusion”. In data set [2] (bladder perfusion, terminal bladder tissue), the “Bladder tissue concentrations relative to IC50” value is on record as “below the IC50 of carboplatin”.
In the case of `N.N.[Cl][Pt][Cl]` [cisplatin], in the data set on male Sprague Dawley rats [1] (rat, in vivo, iv), the “Clinical Observations of note during Perfusion” value is recorded as “Normal” and the “Tissue Observations at Necropsy (overall)” value is “No observations”. In data set [2] (rat, in vivo), the “Bladder platinum concentrations, 72 hr perfusions compared to 24 hr perfusions” value is “Significantly higher and more variable”; the “Blood profile (platinum, whole blood)” value is “rising blood levels”.
Consider `O=C1[O][Pt]2([NH][C@@H]3CCCC[C@H]3[NH]2)[O]C1=O` [oxaliplatin], for which the “Appearance of animals throughout the study” value in the data set on male Sprague Dawley rats [3] (0.308 mg/mL) is listed as “All animals appeared normal”. Also, the “Observations at necropsy: erythemia (animal 48: erythemia and edema) on inside wall of bladder associated with the bladder cannula” value in the data set on male Sprague Dawley rats [3] (0.308 mg/mL, individual animals 47, 48) is “bladder associated with the bladder cannula mild; also recorded: bladder associated with the bladder cannula moderate”. Further, in the data set with male Sprague Dawley rats [3] (setting [8]), the “Observations at necropsy: erythemia of bladder surface (grade)” value is on record as “Slight erythemia; also recorded: Slight erythemic”; the “Observations at necropsy: erythemia, share of surface” value is 20 % of surface (2×) and < 5 % of surface. Also, in the data set with male Sprague Dawley rats [3] (Example 2), the “Bladder tolerability and tissue permeability criteria (overall)” value was “both bladder tolerability and tissue permeability”. Further, the “Blood and kidney platinum concentrations, in contrast to cisplatin” value in data set [4] (72-hour bladder perfusion) was “Comparatively low”. In addition, the “Bladder platinum concentrations compared to cisplatin and carboplatin” value in data set [4] (72-hour bladder perfusion, FIGS. 12A-12B) was “significant platinum bladder concentrations”. In addition, in data set [4] (72-hour bladder perfusion, terminal tissues), the “Platinum concentration in the kidney or prostate” value is “No appreciable platinum concentration”. Besides, the “Blood concentrations (blood profile) compared with cisplatin and carboplatin” value in data set [4] (72 hour bladder perfusion, FIG. 10) was “fell between cisplatin and carboplatin”.
